Assay results published in patent publication US20160038454A1, “INTRAVENOUS FORMULATIONS OF […] AS IMMUNOMODULATORS AND […] AGENTS” (priority 2013, published 2016).
Read-outs that look alike come from different tables or passages of the source.

Tests used:
bleomycin-induced PF = settings: G. Krishna et al., 2001; cited from earlier work
[1] = Conversion to triptolide using human serum; format: in vitro ADME
Description: (Xia Zhi Lin and Zhen You Lan, Haematologica, 93:14 (2008)).

in vitro = format: cell-based, human; settings: human; Jurkat cells; test compounds incubated in serum for 24 hrs; read-out: Viability/Cytotoxicity MTT (ED50)
Method: (§1) Test compounds may be dissolved in DMSO at a concentration of 20 mM. Further dilutions may be done in RPMI1640 medium (GIBCO, Rockville, Md.) supplemented with 10% Fetal Calf Serum (HyClone Laboratories, Logan, Utah).
(§2) Cytotoxicity of the compounds is determined in a standard MTT assay using Cell Proliferation Kit I (#1 465 007, Roche Diagnostics, Mannheim, Germany). Briefly, human T cell lymphoma (Jurkat) cells (4×10^5 per well) are cultured for 24 h, in 96-well tissue culture plates, in the presence of serial three-fold dilutions of test compounds or medium containing the same concentration of DMSO as in the test samples at each dilution point. The cultures are then supplemented with 10 μl/well MTT reagent for 4 h and then with 0.1 ml/well solubilizing reagent for an additional 16 h. Optical density at 570 nm (OD570) is measured on a ThermoScan microplate reader (Molecular Devices, Menlo Park, Calif.).

[2] = test system: human T cell lymphoma (Jurkat) cells; test: in vitro; format: cell-based
Method: as §1, §2

[3] = test system: IL-2 production by Jurkat cells; test: cells; format: cell-based, human; settings: for IC50: read-out: Immunosuppression IL-2 (IC50)
Method: Test samples can be diluted to 1 mM in complete tissue culture medium. Aliquots are placed in microculture plates coated with anti-CD3 antibody (used to stimulate the production of IL-2 by Jurkat cells), and serial dilutions are prepared so that the final concentration encompass the range of 0.001 to 10,000 nM in log increments. Cells from an exponentially expanding culture of Jurkat human T cell line (#TIB-152 obtained from American Type Culture Collection, Manassas, Va.) are harvested, washed once by centrifugation, re-suspended in complete tissue culture medium, and diluted to a concentration of 2×10^6 cells/ml. A volume of 50 μl of Jurkat cells (1×10^5 cells) is added to wells containing 100 μl of the diluted compounds, 50 μl of PMA (10 ng/ml) is added to each well, and the plates are incubated at 37° C. in a 5% CO2 incubator. After 24 hours, the plates are centrifuged to pellet the cells, 150 μl of supernatant is removed from each well, and the samples are stored at −20° C. The stored supernatants are analyzed for human IL-2 concentration using the Luminex 100 (Luminex Corporation, Austin, Tex.), Luminex microspheres coupled with anti-IL-2 capture antibody, and fluorochrome-coupled anti-IL-2 detection antibody. The data are expressed as pg/ml of IL-2.

[4] = test system: IL-2 production by Jurkat cells; settings: cited from earlier work
[5] = test system: human T cell lymphoma (Jurkat) cells; settings: cited from earlier work
[6] = test system: primary cultured rat mesencephalic neurons; settings: Li et al., 2003; cited from earlier work
rat model of PD = settings: 0.5-1 μg/kg; Cheng et al., 2002; cited from earlier work
patients with AML = settings: given intravenously; Xia Zhi Lin and Zhen You Lan 2008; cited from earlier work
[7] = TK: plasma triptolide levels, Calvert study (emulsion); format: in vivo, rodents; settings: for Plasma Triptolide Concentration: 0.15 mg/kg (emulsion)
Method: Triptolide prodrugs are generally believed to be safer than triptolide. […] Triptolide prodrugs as an emulsion formulation are believed to have a toxicokinetic profile characterized by a flat AUC with a minimized Cmax. [In conjunction, it was postulated that a sustained inhibition of RNA polymerase is needed for optimum efficacy which in turn requires a pharmcokinetic profile of constant exposure to drug]. […] The no effect dose (“NOAEL”) of PG796(MRx102) again exceeded 1.5 mg/kg/day intravenously for seven days in rodents confirming the initial results. It is interesting to ask why a prodrug of triptolide would be safer than the natural product itself; while not wishing to be bound by theory, perhaps the answer lies in the pharmacokinetic profile of triptolide administered either directly or released from its carrier, PG796(MRx102). […] It also remained above the therapeutic levels (shown as a thick line without symbols). The difference in the Cmax/AUC profile of PG796(MRx102) vs. triptolide is believed to be due to the physiochemical properties of the lipid prodrug/emulsion formulation combination. In general, triptolide prodrugs having a cLogP greater than 0.5 are more lipid-soluble than water soluble and are expected to take longer to convert to the drug form; such characteristics may yield a flatter conversion profile and less of a drug-release Cmax spike.
TK comparison of triptolide levels in Calvert and SRI studies—Males and Females

[8] = biological target: T1, human XPB (also known as ERCC3) (Homo sapiens, UniProt P19447); settings: Titov et al. 2011; cited from earlier work
T1 sequence (P19447 1-782): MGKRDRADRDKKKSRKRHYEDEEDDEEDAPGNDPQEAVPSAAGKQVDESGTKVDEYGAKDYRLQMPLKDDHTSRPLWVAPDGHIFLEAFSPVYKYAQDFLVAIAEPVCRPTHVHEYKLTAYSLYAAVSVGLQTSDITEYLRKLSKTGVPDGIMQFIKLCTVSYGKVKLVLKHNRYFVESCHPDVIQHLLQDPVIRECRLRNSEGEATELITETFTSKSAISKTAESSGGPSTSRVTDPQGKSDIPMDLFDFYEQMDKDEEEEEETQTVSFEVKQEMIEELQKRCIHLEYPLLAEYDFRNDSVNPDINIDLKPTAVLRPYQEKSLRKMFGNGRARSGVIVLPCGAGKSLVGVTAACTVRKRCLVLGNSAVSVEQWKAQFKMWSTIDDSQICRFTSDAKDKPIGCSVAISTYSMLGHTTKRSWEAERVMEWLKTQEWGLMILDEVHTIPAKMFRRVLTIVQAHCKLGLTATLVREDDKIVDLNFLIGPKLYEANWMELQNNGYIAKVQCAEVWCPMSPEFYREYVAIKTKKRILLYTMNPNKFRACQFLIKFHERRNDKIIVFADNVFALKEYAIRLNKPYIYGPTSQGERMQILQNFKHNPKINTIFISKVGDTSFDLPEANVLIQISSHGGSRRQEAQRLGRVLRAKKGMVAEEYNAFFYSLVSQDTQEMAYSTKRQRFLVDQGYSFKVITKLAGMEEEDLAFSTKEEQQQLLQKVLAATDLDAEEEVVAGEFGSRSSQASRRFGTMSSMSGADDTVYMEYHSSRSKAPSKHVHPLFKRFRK

PC12 cells = settings: cited from earlier work
[9] = test system: lipopolysaccharide (LPS)-activated microglial activity; settings: Zhou et al., 2003; cited from earlier work
[10] = test system: primary mesencephalic neuron/glia mixed culture; settings: Li et al., 2004; cited from earlier work
[11] = incubated in human serum compared with mouse serum
[12] = FIG. 1, triptolide provided alone

14-succinimide ester of triptolide
bleomycin-induced PF (bleomycin-induced PF): block bleomycin-induced PF

CC(C)[C@]12O[C@H]1[C@@H]1O[C@]13[C@]1(O[C@H]1C[C@H]1C4=C(CC[C@@]13C)C(=O)OC4)[C@@H]2OC(=O)CCC(=O)[O-].[Na+] [PG490-88Na]
conversion to triptolide in human serum [1]: incompletely converted

CC(C)[C@]12O[C@H]1[C@@H]1O[C@]13[C@@]1(OC(=O)O[C@H]21)[C@H](Cl)C[C@H]1C2=C(CC[C@@]13C)C(=O)OC2 [PG762]
EC50 at 24 h (in vitro): 60 nM
cytotoxic activity in MTT assay (in words) ([2]; Jurkat cells, comparison with triptolide or PG490-88): comparable potency
IC50 ([3]; Homo sapiens, Jurkat, 24 h): 9 nM

CC(C)[C@]12O[C@H]1[C@@H]1O[C@]13[C@]1(O[C@H]1C[C@H]1C4=C(CC[C@@]13C)C(=O)OC4)[C@H]2F [PG763, 14-deoxy-14α-fluoro triptolide]
inhibition of IL-2 (as reported in U.S. application 60/449,976) [4]: inhibition of IL-2
cytotoxicity in Jurkat cells (as reported in U.S. application 60/449,976) [5]: cytotoxicity in human T cell lymphoma (Jurkat) cells

CC(C)[C@]1(O)[C@H](Cl)[C@@H]2O[C@]23[C@]2(O[C@H]2C[C@H]2C4=C(CC[C@@]23C)C(=O)OC4)[C@@H]1O [Tripchlorolide]
protection from neurotoxic lesion induced by 1-methyl-4-phenylpyridinium ion [6]: protects dopaminergic neurons
recovery of rats undergoing neurosurgery (rat model of PD): improves recovery

triptolide 14-succinate [PG490-88]
activity in MTT assay after incubation in human serum vs mouse serum [2, 11]: much less active
activity in IL-2 inhibition assay after incubation in human serum vs mouse serum [3, 11]: much less active
clinical activity in patients with AML (patients with AML): promising activity

triptolide [PG490]
IC50 ([3]; Jurkat cells, test compounds incubated in serum for 24 hrs): 4 nM
Plasma Triptolide Concentration ([7]; females, 0 hrs): 0 ng/mL
Plasma Triptolide Concentration ([7]; females, 0.25 hrs): 74.6 ng/mL
Plasma Triptolide Concentration ([7]; females, 0.5 hrs): 18.4 ng/mL
Plasma Triptolide Concentration ([7]; females, 1 hrs): 13.2 ng/mL
Plasma Triptolide Concentration ([7]; females, 2 hrs): 0 ng/mL
Plasma Triptolide Concentration ([7]; females, 24 hrs): 0 ng/mL
Plasma Triptolide Concentration ([7]; males, 0 hrs): 0 ng/mL
Plasma Triptolide Concentration ([7]; males, 0.25 hrs): 59.0 ng/mL
Plasma Triptolide Concentration ([7]; males, 0.5 hrs): 14.9 ng/mL
Plasma Triptolide Concentration ([7]; males, 1 hrs): 3.6 ng/mL
Plasma Triptolide Concentration ([7]; males, 2 hrs): 0 ng/mL
Plasma Triptolide Concentration ([7]; males, 24 hrs): 0 ng/mL
triptolide Cmax (in words) [7, 12]: very high Cmax
triptolide in circulation by two hours post-dose [7, 12]: none remained in circulation
DNA-dependent ATPase activity of XPB [8]: inhibit
binding to human XPB [8]: covalently bind
β-amyloid-induced apoptosis (PC12 cells): markedly inhibit
LPS-activated microglial activity (nitrite accumulation, TNF-α and IL-1β release) [9]: powerful inhibitory influence
LPS-induced decrease in 3H-dopamine uptake and loss of tyrosine hydroxylase-positive neurons [10]: attenuates
